Legend:
Format in all cases: in vivo
[1] = test system: Alopecurus myosuroides (ALOMY); test: Pre-emergence biological efficacy, glasshouse pot test; conditions: evaluated after 13 days, 100=total damage, 0=no damage, read-out: Percentage damage caused to weed species, pre-emergence, ALOMY; for pest or weed control at 1000 g/ha: 312 h, 1,000 g/ha
Method: (§1) Seeds of Alopecurus myosuroides (ALOMY), Setaria faberi (SETFA), Echinochloa crus-galli (ECHCG), Solanum nigrum (SOLNI), Amaranthus retroflexus (AMARE) and Ipomea hederaceae (IPOHE) were sown in standard soil in pots. After cultivation for one day under controlled conditions in a glasshouse (at 24/16° C., day/night; 14 hours light; 65% humidity), the plants were sprayed with an aqueous spray solution derived from the formulation of the technical active ingredient in acetone/water (50:50) solution containing 0.5% Tween 20 (polyoxyethylene sorbitan monolaurate, CAS RN 9005-64-5) to give a final dose of 1000 or 250 g/ha of test compound. The test plants were then grown under controlled conditions in the glasshouse (at 24/16° C., day/night; 14 hours light; 65% humidity) and watered twice daily. After 13 days the test was evaluated (100=total damage to plant; 0=no damage to plant).

[2] = test system: Amaranthus retroflexus (AMARE); test: as above; conditions: evaluated after 13 days, 100=total damage, 0=no damage, read-out: Percentage damage caused to weed species, pre-emergence, AMARE; for pest or weed control at 1000 g/ha: 312 h, 1,000 g/ha
Method: as §1

[3] = test system: Echinochloa crus-galli (ECHCG); test: as above; conditions: evaluated after 13 days, 100=total damage, 0=no damage, read-out: Percentage damage caused to weed species, pre-emergence, ECHCG; for pest or weed control at 1000 g/ha: 312 h, 1,000 g/ha
Method: as §1

[4] = test system: Ipomea hederaceae (IPOHE); test: as above; conditions: Ipomoea hederacea, evaluated after 13 days, 100=total damage, 0=no damage, read-out: Percentage damage caused to weed species, pre-emergence, IPOHE; for pest or weed control at 1000 g/ha: 312 h, 1,000 g/ha
Method: as §1

Setaria faberi (SETFA) [5] = test: as above; conditions: evaluated after 13 days, 100=total damage, 0=no damage, read-out: Percentage damage caused to weed species, pre-emergence, SETFA; for pest or weed control at 1000 g/ha: 312 h, 1,000 g/ha
Method: as §1

Solanum nigrum (SOLNI) [6] = test: as above; conditions: evaluated after 13 days, 100=total damage, 0=no damage, read-out: Percentage damage caused to weed species, pre-emergence, SOLNI; for pest or weed control at 1000 g/ha: 312 h, 1,000 g/ha
Method: as §1

[7] = test system: Alopecurus myosuroides (ALOMY); test: Post-emergence biological efficacy, glasshouse pot test; conditions: evaluated after 13 days, 100=total damage, 0=no damage, read-out: Percentage damage caused to weed species, post-emergence, ALOMY; for pest or weed control at 1000 g/ha: 312 h, 1,000 g/ha
Method: as §1, with “for 8 days” for “for one day”, “grown on” for “grown”, “in a” for “in the”

[8] = test system: Amaranthus retroflexus (AMARE); test: as above; conditions: evaluated after 13 days, 100=total damage, 0=no damage, read-out: Percentage damage caused to weed species, post-emergence, AMARE; for pest or weed control at 1000 g/ha: 312 h, 1,000 g/ha
Method: as §1, with “for 8 days” for “for one day”, “grown on” for “grown”, “in a” for “in the”

[9] = test system: Echinochloa crus-galli (ECHCG); test: as above; conditions: evaluated after 13 days, 100=total damage, 0=no damage, read-out: Percentage damage caused to weed species, post-emergence, ECHCG; for pest or weed control at 1000 g/ha: 312 h, 1,000 g/ha
Method: as §1, with “for 8 days” for “for one day”, “grown on” for “grown”, “in a” for “in the”

[10] = test system: Ipomea hederaceae (IPOHE); test: as above; conditions: Ipomoea hederacea, evaluated after 13 days, 100=total damage, 0=no damage, read-out: Percentage damage caused to weed species, post-emergence, IPOHE; for pest or weed control at 1000 g/ha: 312 h, 1,000 g/ha
Method: as §1, with “for 8 days” for “for one day”, “grown on” for “grown”, “in a” for “in the”

Setaria faberi (SETFA) [11] = test: as above; conditions: evaluated after 13 days, 100=total damage, 0=no damage, read-out: Percentage damage caused to weed species, post-emergence, SETFA; for pest or weed control at 1000 g/ha: 312 h, 1,000 g/ha
Method: as §1, with “for 8 days” for “for one day”, “grown on” for “grown”, “in a” for “in the”

Solanum nigrum (SOLNI) [12] = test: as above; conditions: evaluated after 13 days, 100=total damage, 0=no damage, read-out: Percentage damage caused to weed species, post-emergence, SOLNI; for pest or weed control at 1000 g/ha: 312 h, 1,000 g/ha
Method: as §1, with “for 8 days” for “for one day”, “grown on” for “grown”, “in a” for “in the”

Structure (SMILES) | pest or weed control at 1000 g/ha [1] | pest or weed control at 1000 g/ha [2] | pest or weed control at 1000 g/ha [3] | pest or weed control at 1000 g/ha [4] | pest or weed control at 1000 g/ha (Setaria faberi (SETFA) [5]) | pest or weed control at 1000 g/ha (Solanum nigrum (SOLNI) [6]) | pest or weed control at 1000 g/ha [7] | pest or weed control at 1000 g/ha [8] | pest or weed control at 1000 g/ha [9] | pest or weed control at 1000 g/ha [10] | pest or weed control at 1000 g/ha (Setaria faberi (SETFA) [11]) | pest or weed control at 1000 g/ha (Solanum nigrum (SOLNI) [12]) | other results
COC(=O)c1nc(Cl)c(F)c(NCc2ncccc2Cl)c1Br [Compound 32-29, 3-Bromo-6-chloro-4-[(3-chloro-pyridin-2-ylmethyl)-amino]-5-fluoro-pyridine-2-carboxylic acid methyl ester] | – | – | – | – | – | – | – | – | – | – | – | – | pest or weed control at 250 g/ha ([1]; 312 h, 250 g/ha): 10%; pest or weed control at 250 g/ha ([2]; 312 h, 250 g/ha): 90%; pest or weed control at 250 g/ha ([3]; 312 h, 250 g/ha): 10%; pest or weed control at 250 g/ha ([4]; 312 h, 250 g/ha): 70%; pest or weed control at 250 g/ha (Setaria faberi (SETFA) [5]; 312 h, 250 g/ha): 0%; pest or weed control at 250 g/ha (Solanum nigrum (SOLNI) [6]; 312 h, 250 g/ha): 80%; pest or weed control at 250 g/ha ([7]; 312 h, 250 g/ha): 20%; pest or weed control at 250 g/ha ([8]; 312 h, 250 g/ha): 70%; pest or weed control at 250 g/ha ([9]; 312 h, 250 g/ha): 50%; pest or weed control at 250 g/ha ([10]; 312 h, 250 g/ha): 60%; pest or weed control at 250 g/ha (Setaria faberi (SETFA) [11]; 312 h, 250 g/ha): 60%; pest or weed control at 250 g/ha (Solanum nigrum (SOLNI) [12]; 312 h, 250 g/ha): 80%
COC(=O)c1nc(Cl)cc(NC[C@@H]2CCCC[C@H]2O)c1Cl [Compound 68-2, 3,6-Dichloro-pyridine-4-[trans-(2-hydroxycyclohexyl-methyl)-amino]-2-carboxylic acid methyl ester] | 70% | 100% | 0% | 90% | 80% | 100% | 40% | 100% | 20% | 70% | 70% | 100% | –
C=Cc1c(NCc2cccs2)cc(Cl)nc1C(=O)OC [Compound 75-12, 6-Chloro-3-ethenyl-4-(thiophen-2-ylmethylamino)-pyridine-2-carboxylic acid methyl ester] | 80% | 100% | 60% | 80% | 70% | 100% | 50% | 100% | 70% | 50% | 80% | 100% | –
COC(=O)c1nc(Cl)cc(NCc2ccco2)c1C1CC1 [Compound 26-7, 6-chloro-3-cyclopropyl-4-[(furan-2-ylmethyl)-amino]-pyridine-2-carboxylic acid methyl ester] | 10% | 60% | 10% | 70% | 10% | 80% | 0% | 40% | 0% | 30% | 0% | 70% | –
C=Cc1c(NCc2ccco2)cc(-c2ccc(Cl)c(N(C)C)c2F)nc1C(=O)OC [Compound 26-255, 6-(4-Chloro-3-dimethyl-amino-2-fluoro-phenyl)-3-ethenyl-4-[(furan-2-ylmethyl)-amino]-pyridine-2-carboxylic acid methyl ester] | 10% | 30% | 20% | 10% | 10% | 70% | 0% | 20% | 0% | 10% | 0% | 70% | –
CCN1CCCC1CNc1cc(Cl)nc(C(=O)OC)c1Cl (stereo not drawn) [Compound 71-2, 3,6-Dichloro-4-[(N-ethyl-pyrrolidin-2-ylmethyl)-amino]-pyridine-2-carboxylic acid methyl ester] | 70% | 100% | 20% | 100% | 80% | 100% | 20% | 100% | 20% | 60% | 50% | 100% | –
COC(=O)c1nc(Cl)cc(NCc2cccc(F)c2)c1Cl [Compound 7-2, 3,6-Dichloro-4-[(3-fluorophenylmethyl)-amino]-pyridine-2-carboxylic acid methyl ester] | 50% | 100% | 50% | 100% | 80% | 100% | 50% | 100% | 50% | 80% | 90% | 100% | –
C=Cc1c(C(=O)OC)nc(Cl)c(Cl)c1NCc1ccccc1[N+](=O)[O-] [Compound 15-39, 5,6-Dichloro-3-ethenyl-4-[(2-nitrophenylmeth-yl)-amino]-pyridine-2-carboxylic acid methyl ester] | 30% | 100% | 80% | 90% | 40% | 100% | 60% | 100% | 60% | 90% | 80% | 100% | –
